Test results as given in US9738610B2, “Indazole derivatives and uses thereof” (Whitehead Institute for Biomedical Research, priority 2012, dated 2017).
≈ marks a conversion by molar mass, not a printed value. Read-outs that look alike come from different tables or passages of the source.

Experiments:
[1] = tested on: C. albicans CaCi-2; test: CaCi-2 growth inhibition in the presence of 8 μg/ml fluconazole (Alamar Blue); assay type: cell-based, Candida albicans; details: for IC50: in the presence of fluconazole, read-out: Target Potency (μM) Mean ± S.E.M CaCi-2^a IC50
Experimental: Fluconazole was obtained from Sequoia Research Products, Ltd. and prepared in a 2 mg/ml stock solution in phosphate buffered saline (PBS). […] PBS (Catalog No. 21-040-CV) without calcium and magnesium was obtained from Cellgro. Penicillin/Streptomycin (Pen/Strep) was obtained from Gibco and prepared 100× in PBS.
RPMI medium (1×) was prepared by dissolving 10.4 g powdered medium in 800 ml water. A buffer of 34.52 g MOPS was added. While stirring, pH was adjusted to 7.0 with 10 N NaOH. Next, 10 ml uridine solution and 50 ml glucose solution were added. The final volume was adjusted to 1000 ml, and filter sterilized.
The following yeast strains were used in this study: C. albicans CaCi-2. Fungal inoculum was prepared as follows: 500 μl of strain was inoculated from cryopreserved stock into a 250-ml shaker flask containing 30 ml growth medium and shaken overnight at 30° C. The optical density (OD 600) of 1 ml fungal culture in a cuvette was read using a standard optical density reader (Eppendorf BioPhotometer Plus), with growth medium as a background blank. The desired volume of fungal inoculums was diluted to desired volume of fungal inoculums according to the following formula: (1/OD measured)×(Desired Final Volume of Inoculum)×0.3=Volume of fungal culture (μl) to add to desired volume of growth medium. When added to media in wells, this yields a calculated starting OD of the fungal inoculum of 0.00015.
Fluconazole stock solution was added to the fungal inoculum to achieve 8 μg/ml. Pen/Strep was added to the media to a 1% concentration (v/v). A Thermo Combi nL was used to dispense 20 μl/well of assay media into all wells. Geldanamycin was dispensed in positive control wells using Thermo Combi nL for a final concentration of 3 μM. Then, 100 nl of test compound was pinned from compound plates into assay plates using a CyBi-Well pin tool. A further 20 μl/well of culture was dispensed into the assay media in all wells. The plates were incubated in a humidified (90% humidity) Liconic incubator at 37° C. without agitation for 48 hours. Alamar Blue was diluted 1:40 in Ca/Mg-free PBS. To all plates, […] of the diluted Alamar Blue was added to the plates to a final dilution factor of 1:200. The plates were incubated for an additional 2 hours. Then, Relative Fluorescence Intensity (RFU) of each well was read on standard plate reader as a measure of relative fungal growth.

[2] = tested on: C. albicans CaCi-2; test: Secondary single-agent (no-fluconazole) activity assay; assay type: cell-based, Candida albicans; details: read-out: Target Potency (μM) Mean ± S.E.M CaCi-2^b IC50
Experimental: Clear, flat-bottom, black, 384-well plates were obtained from Corning. […] Pen/Strep was obtained from Gibco and prepared 100× in PBS. Fluconazole was obtained from Sigma and prepared in 2 mg/ml stock solution in PBS. Alamar Blue was obtained from Biosource International (Catalog No. DAL1100). Phosphate buffered solution (PBS) without calcium and magnesium was obtained from Cellgro.
Fungal inoculum was prepared as follows: 500 μl of yeast was inoculated from cryopreserved stock into a 250-ml shaker flask containing 30 ml growth medium and shaken overnight (16 hours) at 30° C. The culture was spun down, and the broth was poured off and washed with RPMI medium. The culture was spun down again, and the broth was poured off and resuspended in RPMI medium. The OD 600 of 1 ml of fungal culture in a cuvette was read using a standard optical density reader with growth medium as a background blank. The desired volume of fungal inoculum was diluted to starting OD of the fungal inoculum of 0.00015 A600.
Pen/Strep was added to the media to a final 1% concentration. A Combi NL (Thermo) was used to dispense 20 μl/well of assay media into all wells. Geldanamycin (1.5 mM) and fluconazole (0.2 mg/ml) were mixed for the positive control. Then, 80 nl of positive control solution was dispensed into the positive control wells using Thermo Combi nL for a final concentration of 3 μM geldanamycin and 8 μg/ml fluconazole. Then, 100 nl of test compound were pinned from the compound plates into assay plates using a CyBi-Well pin tool. A further 20 μl/well of RPMI synthetic defined medium culture was dispensed into 384-well, black plates. Fungal suspension (20 μl/well) was dispensed into all wells. The plates were incubated in a humidified (90% humidity) Liconic incubator at 37° C. without agitation for 48 hours. Alamar Blue Reagent was diluted 1:40 in Ca/Mg-free PBS. To all plates, 6.4 μl/well of the diluted Alamar Blue was added to the plates to a final dilution factor of 1:200. The plates were incubated for 2 hours at room temperature. Next, RFU of wells was read on a standard plate reader as a measure of relative fungal growth.

[3] = Plasma protein binding; details: % bound in human plasma
[4] = tested on: C. albicans CaCi-8; test: microbe, parasite or virus in culture; assay type: cell-based, Candida albicans; details: for IC50: in the presence of fluconazole, read-out: Target Potency (μM) Mean ± S.E.M CaCi-8^a IC50
Experimental: This subset was re-subjected to the primary assay and was also tested concurrently in two secondary assays. Secondary assay 1 measured chemosensitization of the more resistant CaCi-8 strain. Secondary assay 2 eliminated anything with inherently antifungal activity. […] A final assay (secondary assay 3) was incorporated to discard any compound displaying toxicity to mammalian fibroblasts. […] This screening campaign is also illustrated in FIG. 3B.
Those that inhibited growth in the resistant strain were also tested for toxicity against Candida in the absence of fluconazole and for toxicity against mammalian cells using a fluorescence reporter assay. The positive control for screening in the Candida and mammalian cell assays was the Hsp90 inhibitor geldanamycin (acting in concert with fluconazole; FIG. 4). Compounds that passed these four hurdles were binned through use of a Saccharomyces assay to determine whether the mechanism of action might be through the Hsp90 pathway, the calcineurin pathway, or an uncategorized mechanism.

[5] = Plasma stability; details: % remaining in human plasma after a 5-hour incubation
[6] = PBS solubility; details: PBS
[7] = tested on: NIH-3T3 mammalian fibroblasts; test: Counterscreen mammalian cell toxicity assay (fibroblast toxicity); assay type: cell-based, murine; details: for ** CaCi-2 to anti-target fold selectivity: fibroblast IC50 over CaCi-2 IC50 with fluconazole; for IC50: footnote: in the absence of fluconazole, read-out: Anti-target Potency (μM) Mean ± S.E.M Fibroblasts^b IC50
[8] = 37° C., 48 hours, with 8 μg/mL (26 μM) fluconazole, average of at least three experiments

Row | SMILES | IC50 [1] [µM] | IC50 ([2]; in the absence of fluconazole) [µM] | Plasma Protein Binding [3] [%] | IC50 [4] [µM] | Plasma Stability [5] | PBS Solubility [6] | IC50 [2] [µM] | ** CaCi-2 to anti-target fold selectivity [7] | IC50 [7] [µM] | IC50 ([2]; Candida albicans, CACI2, in the absence of fluconazole) [µM] | solubility ([6]; aqueous buffer) [µM] | IC50 ([7]; Mus musculus, NIH3T3) [µM] | CaCi-2 IC50 (μM) [1, 8] | CaCi-8 IC50 (μM) [4, 8]
1 | c1ccc(-c2n[nH]c3ccccc23)cc1 [Compound 300385] | 3 | > 26 | 98 | > 26 | > 99% |  |  |  |  |  |  |  |  | 
2 | COC(=O)Cn1nc(-c2ccccc2)c2ccccc21 [Compound 3243873] | 1.86 ± 0.99 | > 26 | 96 | 2.53 ± 1.13 | < 1.0% |  |  |  |  |  |  |  |  | 
3 | CNC(=O)Cn1nc(-c2ccccc2)c2ccccc21 [Compound 13330955] |  | > 26 | 93 | > 26 | > 99% | < 18.5 µM |  |  |  |  |  |  |  | 
4 | O=C(Cn1nc(-c2ccccc2)c2ccccc21)N1CCc2ccccc2C1 [Compound 20877557] |  | > 26 | > 99 | > 26 | 97% | < 1.0 µM |  |  |  |  |  |  |  | 
5 | COC(=O)[C@@H](C)n1nc(-c2ccccc2)c2ccccc21.COC(=O)[C@H](C)n1nc(-c2ccccc2)c2ccccc21 [Compound 49835813] | 6.56 ± 0.79 | > 26 | > 99 | 15.8 | 61% | < 1.0 µM |  |  |  |  |  |  |  | 
6 | COC(=O)Cn1nc(-c2ccccc2)c2ccc(F)cc21 [Compound 49835815] | 5.1 | > 26 | 97 | 8.34 | 1.1% |  |  |  |  |  |  |  |  | 
7 | CCC(=O)Cn1nc(-c2ccccc2)c2ccccc21 [Compound 49835816] |  |  | 99 | > 26 | 98% | < 1.0 µM | > 26 |  |  |  |  |  |  | 
8 | COC(=O)Cn1nc(-c2ccccc2)c2ccc(Cl)cc21 [Compound 49835818] | 3.79 | > 26 | 18 | 8.57 | 90% |  |  | 7.9 | 29.9 |  |  |  |  | 
9 | COC(=O)Cn1nc(-c2cccc(C)c2)c2ccccc21 [Compound 49835823] | 0.65 | > 26 | 98 | 1.34 | 4.7% |  |  |  |  |  |  |  |  | 
10 | O=C1OCCC1n1nc(-c2ccccc2)c2ccccc21 (stereo not shown) [Compound 49835834] |  | > 26 |  | > 26 | PBS Solubility: <1.0 μM Plasma Protein Binding: ND Plasma Stability: <1.0% Purity (UPLC): 65% | PBS Solubility: <1.0 μM Plasma Protein Binding: ND Plasma Stability: <1.0% Purity (UPLC): 65% |  |  |  |  |  |  |  | 
11 | COC(=O)CCn1nc(-c2ccccc2)c2ccccc21 [Compound 49835835] |  | > 26 | > 99 | > 26 | 74% | < 1.0 µM |  |  |  |  |  |  |  | 
12 | COC(=O)Cn1nc(-c2ccccc2OC)c2ccccc21 [Compound 49835850] | 6.21 | > 26 | 92 | 10.2 | < 1.0% |  |  | 0.17 | 1.54 |  |  |  |  | 
13 | COC(=O)Cn1ncc2ccccc21 [Compound 49835852] |  |  | < 1.0 |  | < 1.0% |  |  |  | 0.74 |  |  |  |  | 
14 | COC(=O)Cn1nc(-c2ccc(C(F)(F)F)cc2)c2ccccc21 [Compound 49835854] |  | > 26 | 97 | > 26 | 17% |  |  |  | 0.68 |  |  |  |  | 
15 | COC(=O)Cn1nc(-c2cncnc2)c2ccccc21 [Compound 49835858] |  |  |  |  | < 1.0% |  |  |  |  | > 26 | 155 (≈ 41.5 µg/mL) | > 6 |  | 
16 | COC(=O)Cn1nc(-c2ccccc2C)c2ccccc21 [Compound 49835865] | 5.5 | > 26 | < 1.0 | 7.25 | < 1.0% |  |  |  |  |  |  |  |  | 
17 | COC(=O)Cn1nc(-c2ccccc2)c2ccc(C)cc21 [Compound 49835872] | 3.14 | > 26 | 98 | 9.62 | 6.5% |  |  | 10 | 31.6 |  |  |  |  | 
18 | COC(=O)Cn1nc(-c2ccccc2)c2cc(C)ccc21 [Compound 49835874] | 3.28 | > 26 | 95 | 5.33 | < 1.0% |  |  | 21 | 69.5 |  |  |  |  | 
19 | COC(=O)Cn1nc(-c2ccc(F)cc2)c2ccccc21 [Compound 49835876] | 6.26 | > 26 | 93 | 10.2 | < 1.0% |  |  |  |  |  |  |  |  | 
20 | COC(=O)Cn1nc(-c2cccc(OC)c2)c2ccccc21 [Compound 49835877] | 0.44 | > 26 | 95 | 1.21 | 2.6% |  |  |  | > 26 |  |  |  |  | 
21 | CN(C)C(=O)Cn1nc(-c2ccccc2)c2ccccc21 [Compound 49835882] |  |  | 98 | > 26 | 98% | 325.5 µM | > 26 |  |  |  |  |  |  | 
22 | COC(=O)Cn1nc(-c2ccccc2)c2cc(F)ccc21 [Compound 49835889] | 4.63 | > 26 | > 96 | 6.98 | 1.0% |  |  |  |  |  |  |  |  | 
23 | COC(=O)Cn1ncc2ccccc21 [—H] |  |  |  |  |  |  |  |  |  |  |  |  | inactive | inactive
